Experimental data taken from patent US20150258101A1 (Proximagen Limited, priority 2014, published 2015).

How the values were obtained:
[1] = target: T1, purified recombinantly expressed human SSAO (Homo sapiens, UniProt Q16853); assay: SSAO enzyme inhibition assay (benzylamine substrate; hydrogen peroxide/HRP-coupled or 14C aldehyde detection); type: biochemical; conditions: SSAO inhibitory activity, RT
T1 construct: made in house
T1 sequence (Q16853 1-763): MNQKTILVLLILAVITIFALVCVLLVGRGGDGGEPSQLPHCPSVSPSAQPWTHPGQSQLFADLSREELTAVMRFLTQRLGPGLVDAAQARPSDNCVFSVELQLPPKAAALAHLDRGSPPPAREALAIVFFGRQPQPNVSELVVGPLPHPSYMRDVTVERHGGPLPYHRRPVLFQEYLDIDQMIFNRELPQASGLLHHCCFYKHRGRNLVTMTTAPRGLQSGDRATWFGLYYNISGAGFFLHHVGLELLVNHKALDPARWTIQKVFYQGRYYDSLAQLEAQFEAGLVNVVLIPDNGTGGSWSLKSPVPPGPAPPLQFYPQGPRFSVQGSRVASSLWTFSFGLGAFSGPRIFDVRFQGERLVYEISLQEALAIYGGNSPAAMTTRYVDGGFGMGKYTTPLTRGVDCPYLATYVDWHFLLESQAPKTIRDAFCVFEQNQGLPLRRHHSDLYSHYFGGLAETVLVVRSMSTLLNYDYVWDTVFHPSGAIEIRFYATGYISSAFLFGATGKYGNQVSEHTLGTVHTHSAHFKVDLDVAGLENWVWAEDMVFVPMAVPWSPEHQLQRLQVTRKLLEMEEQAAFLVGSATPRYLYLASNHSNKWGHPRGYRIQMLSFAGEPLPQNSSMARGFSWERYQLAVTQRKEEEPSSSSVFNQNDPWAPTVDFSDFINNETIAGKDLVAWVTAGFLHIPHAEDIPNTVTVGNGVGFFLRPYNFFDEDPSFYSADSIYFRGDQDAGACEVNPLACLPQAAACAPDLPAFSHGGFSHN
Procedure, shortened: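 IC50 values came from a four-parameter logistic fit of % signal decrease versus DMSO control, with no-enzyme background subtracted. Two read-outs were used with human recombinant SSAO after ~15 min compound pre-incubation at RT. In the H2O2/HRP-Amplex read-out, enzyme was 1 ug/ml and benzylamine 100 uM (pH 7.4 phosphate), with resorufin fluorescence followed 1-2 h. In the 14C-benzaldehyde read-out (PBS), enzyme was 10 ug/ml and benzylamine 40 uM, run 1 h then acid-stopped.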

[2] = target: T2, human ether a go-go related gene (hERG) K+ channel (Homo sapiens, UniProt Q12809); assay: hERG assay, IonWorks patch clamp electrophysiology; type: cell-based; conditions: Chinese Hamster Lung cell line stably expressing hERG; max assay concentration 11 uM
T2 construct: a Chinese Hamster Lung cell line stably expressing the full length hERG channel; expressed in transfected cells; host or cells: Chinese Hamster Lung cell line
Method: Compounds of the invention were tested for inhibition of the human ether a go-go related gene (hERG) K^+ channel using IonWorks patch clamp electrophysiology. 8 Point concentration-response curves were generated on two occasions using 3-fold serial dilutions from the maximum assay concentration (11 uM). Electrophysiological recordings were made from a Chinese Hamster Lung cell line stably expressing the full length hERG channel. Single cell ion currents were measured in the perforated patch clamp configuration (100 ug/mL amphoterocin) at room temperature using an IonWorks Quattro instrument. The internal solution contained 140 mM KCl, 1 mM MgCl2, 1 mM EGTA and 20 mM HEPES and was buffered to pH 7.3. The external solution contained 138 mM NaCl, 2.7 mM KCl, 0.9 mM CaCl2, 0.5 mM MgCl2, 8 mM Na2HPO4 and 1.5 mM KH2PO4, and was buffered to pH 7.3. […] This sequence was repeated 5 times at a frequency of 0.25 Hz. Currents were measured from the tail step at the 5th pulse, and referenced to the holding current. Compounds were incubated for 6-7 min prior to a second measurement of the hERG signal using an identical pulse train. […] A control compound (quinidine) was used (see Table 20 below).

T2 sequence (Q12809 whole entry): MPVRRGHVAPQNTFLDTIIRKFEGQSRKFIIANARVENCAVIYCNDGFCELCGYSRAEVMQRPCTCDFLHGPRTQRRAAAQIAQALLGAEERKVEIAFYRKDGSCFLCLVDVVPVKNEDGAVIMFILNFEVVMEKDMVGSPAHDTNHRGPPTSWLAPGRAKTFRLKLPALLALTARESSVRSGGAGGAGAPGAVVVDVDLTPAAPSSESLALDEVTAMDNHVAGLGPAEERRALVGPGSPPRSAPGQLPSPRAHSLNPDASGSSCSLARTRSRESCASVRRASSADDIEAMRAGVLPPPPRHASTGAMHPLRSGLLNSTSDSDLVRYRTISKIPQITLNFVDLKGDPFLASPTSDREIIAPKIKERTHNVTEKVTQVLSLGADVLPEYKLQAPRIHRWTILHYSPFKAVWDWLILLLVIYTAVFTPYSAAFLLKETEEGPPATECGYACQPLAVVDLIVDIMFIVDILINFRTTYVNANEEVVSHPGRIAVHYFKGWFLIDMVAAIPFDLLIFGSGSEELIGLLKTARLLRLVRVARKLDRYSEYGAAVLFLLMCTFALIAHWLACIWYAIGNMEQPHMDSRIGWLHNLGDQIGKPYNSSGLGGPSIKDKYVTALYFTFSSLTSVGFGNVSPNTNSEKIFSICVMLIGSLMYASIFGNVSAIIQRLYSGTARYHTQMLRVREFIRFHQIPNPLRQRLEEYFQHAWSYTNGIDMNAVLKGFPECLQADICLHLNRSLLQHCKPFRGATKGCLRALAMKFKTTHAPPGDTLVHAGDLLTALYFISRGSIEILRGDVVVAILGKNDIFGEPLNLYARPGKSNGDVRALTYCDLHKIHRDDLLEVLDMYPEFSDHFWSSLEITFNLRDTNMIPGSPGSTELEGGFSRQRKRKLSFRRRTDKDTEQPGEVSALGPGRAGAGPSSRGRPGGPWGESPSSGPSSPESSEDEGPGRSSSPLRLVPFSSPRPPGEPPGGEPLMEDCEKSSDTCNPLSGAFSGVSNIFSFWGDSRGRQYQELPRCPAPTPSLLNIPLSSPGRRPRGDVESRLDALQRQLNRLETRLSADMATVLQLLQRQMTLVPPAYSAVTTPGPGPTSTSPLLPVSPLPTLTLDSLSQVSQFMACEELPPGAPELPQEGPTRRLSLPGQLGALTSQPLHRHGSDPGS

Cc1cc(N2CCOCC2)ncc1-c1nc2ccncc2n1-c1ccc(F)cc1 [Example 21, 4-{5-[3-(4-Fluorophenyl)-3H-imidazo[4,5-c]pyridin-2-yl]-4-methylpyridin-2-yl}morpholine]
IC50 [1]: < 50 nM
IC50 [2]: > 10000 nM

O=C1CN(c2ncc(-c3cc4ccncc4n3-c3ccc(Cl)cc3)cn2)CCN1 [Example 128, 4-{5-[1-(4-Chlorophenyl)-1H-pyrrolo[2,3-c]pyridin-2-yl]pyrimidin-2-yl}piperazin-2-one]
IC50 [1]: < 50 nM
IC50 [2]: > 10000 nM

CC1(C)CN(c2ncc(-c3nc4ccncc4n3-c3ccc(F)cc3)cn2)CCO1 [Example 24, 4-{5-[3-(4-Fluorophenyl)-3H-imidazo[4,5-c]pyridin-2-yl]pyrimidin-2-yl}-2,2-dimethylmorpholine]
IC50 [1]: < 50 nM
IC50 [2]: > 10000 nM

Clc1ccc(-n2c(-c3ccc(N4CCOCC4)nc3)nc3ccncc32)nc1 [Example 81, 4-{5-[3-(5-Chloropyridin-2-yl)-3H-imidazo[4,5-c]pyridin-2-yl]pyridin-2-yl}morpholine]
IC50 [1]: < 50 nM
IC50 [2]: > 10000 nM

Fc1ccc(-n2c(-c3cnc(NC4CCOCC4)nc3)nc3ccncc32)cc1 [Example 20, 5-[3-(4-Fluorophenyl)-3H-imidazo[4,5-c]pyridin-2-yl]-N-(oxan-4-yl)pyrimidin-2-amine]
IC50 [1]: 50 to 200 nM
IC50 [2]: > 10000 nM

Clc1ccc(-n2c(-c3cnc(NC4CCOCC4)nc3)nc3ccncc32)cc1 [Example 11, 5-[3-(4-Chlorophenyl)-3H-imidazo[4,5-c]pyridin-2-yl]-N-(oxan-4-yl)pyrimidin-2-amine; bis(trifluoroacetic acid)]
IC50 [1]: < 50 nM
IC50 [2]: > 10000 nM

C[C@@H]1CN(c2ncc(-c3nc4ccncc4n3-c3ccc(F)cc3)cn2)C[C@H](C)O1 [Example 23, (2R,6S)-4-{5-[3-(4-Fluorophenyl)-3H-imidazo [4,5-c]pyridin-2-yl]pyrimidin-2-yl}-2,6-dimethylmorpholine]
IC50 [1]: < 50 nM
IC50 [2]: > 10000 nM

CN(C)c1ccc(-c2nc3ccncc3n2-c2ccc(F)cc2)cn1 [Example 71, 5-[3-(4-Fluorophenyl)-3H-imidazo[4,5-c]pyridin-2-yl]-N,N-dimethylpyridin-2-amine]
IC50 [1]: 200 to 1200 nM
IC50 [2]: > 10000 nM

Fc1ccc(-n2c(-c3cnc(N4CCOCC4)nc3)nc3ccncc32)c(F)c1 [Example 78, 4-{5-[3-(2,4-Difluorophenyl)-3H-imidazo[4,5-c]pyridin-2-yl]pyrimidin-2-yl}morpholine]
IC50 [1]: < 50 nM
IC50 [2]: > 10000 nM

Nc1cc(-c2cc3ccncc3n2-c2ccc(Cl)cc2)ccn1 [Example 147, 4-[1-(4-Chlorophenyl)-1H-pyrrolo[2,3-c]pyridin-2-yl]pyridin-2-amine]
IC50 [1]: < 50 nM
IC50 [2]: 1000 to 10000 nM

Fc1cc(Cl)ccc1-n1c(-c2cnc(N3CCOCC3)nc2)nc2ccncc21 [Example 77, 4-{5-[3-(4-Chloro-2-fluorophenyl)-3H-imidazo[4,5-c]pyridin-2-yl]pyrimidin-2-yl}morpholine]
IC50 [1]: 200 to 1200 nM
IC50 [2]: > 10000 nM

Fc1ccc(-n2c(-c3cnc(N4CCCC4)nc3)nc3ccncc32)cc1 [Example 69, 5-[3-(4-Fluorophenyl)-3H-imidazo[4,5-c]pyridin-2-yl]-2-(pyrrolidin-1-yl)pyrimidine]
IC50 [1]: < 50 nM
IC50 [2]: > 10000 nM

COCCN(C)c1ncc(-c2nc3ccncc3n2-c2ccc(C)cc2)cn1 [Example 117, N-(2-Methoxyethyl)-N-methyl-5-[3-(4-methylphenyl)-3H-imidazo[4,5-c]pyridin-2-yl]pyrimidin-2-amine]
IC50 [1]: 200 to 1200 nM
IC50 [2]: > 10000 nM

O=c1cc(-c2cc3ccncc3n2-c2ccc(Cl)cc2)ccn1C1CC1 [Example 138, 4-[1-(4-Chlorophenyl)-1H-pyrrolo[2,3-c]pyridin-2-yl]-1-cyclopropyl-1,2-dihydropyridin-2-one]
IC50 [1]: < 50 nM
IC50 [2]: 1000 to 10000 nM

Clc1ccc(-n2c(-c3cnc(N4CCOCC4)nc3)cc3ccncc32)cc1 [Example 127, 4-{5-[1-(4-Chlorophenyl)-1H-pyrrolo[2,3-c]pyridin-2-yl]pyrimidin-2-yl}morpholine]
IC50 [1]: < 50 nM
IC50 [2]: 100 to 1000 nM

Clc1ccc(-n2c(-c3ccc(N4CCNCC4)nc3)nc3ccncc32)cc1 [Example 50, 1-{5-[3-(4-Chlorophenyl)-3H-imidazo[4,5-c]pyridin-2-yl]pyridin-2-yl}piperazine]
IC50 [1]: < 50 nM
IC50 [2]: > 10000 nM

Clc1ccc(-n2c(-c3cnc(N4CCOCC4)nc3)nc3ccncc32)nc1 [Example 75, 4-{5-[3-(5-Chloropyridin-2-yl)-3H-imidazo[4,5-c]pyridin-2-yl]pyrimidin-2-yl}morpholine; tris(trifluoroacetic acid)]
IC50 [1]: < 50 nM
IC50 [2]: > 10000 nM

CS(=O)(=O)NC1CCN(c2ccc(-c3nc4ccncc4n3-c3ccc(Cl)cc3)cn2)CC1 [Example 88, N-(1-{5-[3-(4-Chlorophenyl)-3H-imidazo[4,5-c]pyridin-2-yl]pyridin-2-yl}piperidin-4-yl)methanesulfonamide]
IC50 [1]: < 50 nM
IC50 [2]: 1000 to 10000 nM

O=C1CN(c2ncc(-c3nc4ccncc4n3-c3ccc(Cl)cc3)cn2)CCN1 [Example 13, 4-{5-[3-(4-Chlorophenyl)-3H-imidazo[4,5-c]pyridin-2-yl]pyrimidin-2-yl}piperazin-2-one]
IC50 [1]: < 50 nM
IC50 [2]: > 10000 nM

Clc1ccc(-n2c(-c3cnc(NC4CCOCC4)nc3)cc3ccncc32)cc1 [Example 139, 5-[1-(4-Chlorophenyl)-1H-pyrrolo[2,3-c]pyridin-2-yl]-N-(oxan-4-yl)pyrimidin-2-amine]
IC50 [1]: < 50 nM
IC50 [2]: 100 to 1000 nM

Clc1ccc(-n2c(-c3cnc(N4CCOCC4)nc3)nc3ccncc32)cc1 [Example 51, 4-{5-[3-(4-Chlorophenyl)-3H-imidazo[4,5-c]pyridin-2-yl]pyrimidin-2-yl}morpholine]
IC50 [1]: < 50 nM
IC50 [2]: 1000 to 10000 nM
